Experimental findings from publication PMC10846223, “Substrate specificity and ecological significance of PstS homologs in phosphorus uptake in marine Synechococcus sp. WH8102” (Microbiology Spectrum, 2024) are described below.

pKd: −log10 of the molar value.

Common to all, as to experiment: biochemical
One experiment concerns the target T1, PstS2 (Parasynechococcus marenigrum, UniProt Q7U3C5).
T1 construct: gene SYNW2507
T1 sequence (Q7U3C5 24-336): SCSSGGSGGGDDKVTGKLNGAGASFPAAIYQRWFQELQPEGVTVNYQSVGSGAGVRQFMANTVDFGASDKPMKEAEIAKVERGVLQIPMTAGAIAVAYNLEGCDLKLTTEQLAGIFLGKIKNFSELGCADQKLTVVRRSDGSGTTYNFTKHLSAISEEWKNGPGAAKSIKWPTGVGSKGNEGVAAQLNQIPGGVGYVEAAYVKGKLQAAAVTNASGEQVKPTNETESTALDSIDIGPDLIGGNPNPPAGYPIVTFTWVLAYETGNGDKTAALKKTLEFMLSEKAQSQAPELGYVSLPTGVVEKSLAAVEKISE

Another experiment addresses T2, PstS1b (Parasynechococcus marenigrum, UniProt Q7U592).
T2 construct: gene SYNW1815
T2 sequence (Q7U592 26-325): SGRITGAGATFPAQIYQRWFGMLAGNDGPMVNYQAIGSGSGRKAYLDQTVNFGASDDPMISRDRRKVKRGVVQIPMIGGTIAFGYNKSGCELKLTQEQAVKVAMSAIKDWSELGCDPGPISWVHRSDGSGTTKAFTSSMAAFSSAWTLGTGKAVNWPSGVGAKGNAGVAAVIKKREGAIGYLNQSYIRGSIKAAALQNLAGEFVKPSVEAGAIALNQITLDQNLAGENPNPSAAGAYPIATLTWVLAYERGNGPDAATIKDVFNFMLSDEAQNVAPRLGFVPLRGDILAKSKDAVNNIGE

Another experiment has as its target T3, PstS1a (Parasynechococcus marenigrum, UniProt Q7U7G6).
T3 construct: gene SYNW1018
T3 sequence (Q7U7G6 25-324): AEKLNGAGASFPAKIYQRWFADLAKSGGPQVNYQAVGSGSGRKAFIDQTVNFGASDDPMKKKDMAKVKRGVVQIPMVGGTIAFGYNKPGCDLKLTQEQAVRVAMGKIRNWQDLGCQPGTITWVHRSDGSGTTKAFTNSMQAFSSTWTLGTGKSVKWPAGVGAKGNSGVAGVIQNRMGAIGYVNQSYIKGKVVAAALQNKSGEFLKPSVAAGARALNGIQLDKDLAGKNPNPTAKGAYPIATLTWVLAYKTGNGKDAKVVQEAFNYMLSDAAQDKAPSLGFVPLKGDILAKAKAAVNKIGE

On to `O=P(O)(O)O` [phosphate], for which the pKd (commonly −log10 of the Kd, conventionally taken in molar units) was 5.37 at PstS2, 6.36 on PstS1b and 5.48 at PstS1a.
